Results from article PMC9059125 (Journal of Medicinal Chemistry, 2022).

How the values were obtained:
OTR = conditions: cited from earlier work
[1] = simulated gi fluid, pH 6.8
[2] = simulated gi fluid, pH 1.2
in vitro [3] = conditions: pig, simulated gi fluid, pH 6.8
in vitro [4] = conditions: pig, simulated gi fluid, pH 1.2, t1/2 SGF
[5] = biological target: T1, human oxytocin receptor (OTR) (Homo sapiens, UniProt P30559); conditions: cited from earlier work
T1 construct: NIMH PDSP (data provider)
T1 sequence (P30559 1-389): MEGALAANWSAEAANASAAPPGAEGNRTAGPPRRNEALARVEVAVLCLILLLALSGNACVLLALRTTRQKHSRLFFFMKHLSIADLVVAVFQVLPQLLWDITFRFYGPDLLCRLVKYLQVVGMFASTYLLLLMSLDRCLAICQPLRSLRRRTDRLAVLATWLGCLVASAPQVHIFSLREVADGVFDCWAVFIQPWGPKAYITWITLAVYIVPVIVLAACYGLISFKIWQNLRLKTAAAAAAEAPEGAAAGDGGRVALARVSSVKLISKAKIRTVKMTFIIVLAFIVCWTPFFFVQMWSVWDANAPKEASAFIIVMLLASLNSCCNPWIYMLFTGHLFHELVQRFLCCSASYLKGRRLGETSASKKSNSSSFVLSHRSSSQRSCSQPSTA

SMILES | agonistic activity at the OTR (in words) (OTR) | t1/2 SIF [1] | t1/2 SGF [2] | half-life (in vitro [3]) | half-life (in vitro [4]) | activity at the OTR (in words) [5]
CC[C@H](C)[C@@H]1NC(=O)[C@@H]2CCCN2C(=O)[C@H](Cc2c[nH]c3ccccc23)NC(=O)[C@H](CO)NC(=O)[C@@H]2CSSC[C@@H]3NC(=O)[C@H]([C@@H](C)O)NC(=O)[C@H](CCC(=O)O)NC(=O)CNC(=O)[C@@H]4CSSC[C@H](NC(=O)CNC(=O)[C@H](CCC(N)=O)NC(=O)[C@H]([C@@H](C)O)NC(=O)[C@H](Cc5ccc(O)cc5)NC(=O)[C@H](CSSC[C@H](NC1=O)C(=O)N[C@@H](CCCCN)C(=O)N[C@@H](CCCNC(=N)N)C(=O)N[C@@H](CC(N)=O)C(=O)NCC(=O)N[C@@H](CC(C)C)C(=O)N1CCC[C@H]1C(=O)N[C@@H](C(C)C)C(=O)N4)NC(=O)[C@H]([C@@H](C)O)NC(=O)CNC(=O)[C@H](CC(C)C)NC(=O)[C@H]([C@@H](C)O)NC3=O)C(=O)N[C@@H]([C@@H](C)O)C(=O)N2 [Kalata B7] | weak inherent agonistic activity | >24 h | >24 h |  |  | 
CC[C@H](C)[C@@H]1NC(=O)[C@@H]2CCCN2C(=O)[C@@H]2CCCN2C(=O)[C@H]([C@@H](C)CC)NC(=O)[C@H](CO)NC(=O)[C@H](CCCCN)NC(=O)[C@H]([C@@H](C)O)NC(=O)[C@@H]2CSSC[C@H](NC1=O)C(=O)N[C@@H](Cc1ccccc1)C(=O)N1CCC[C@H]1C(=O)N[C@@H](CC(=O)O)C(=O)NCC(=O)N[C@@H](CCCNC(=N)N)C(=O)N2 [SFTI-1] |  |  |  | 16.3 ± 2.7 h | > 24 h | 
CC[C@@H](C)[C@H]1NC(=O)[C@@H](CCC(N)=O)NC(=O)[C@@H](CC(N)=O)NC(=O)[C@H](NC(=O)[C@H]2CCCN2C(=O)[C@@H](CC(C)C)NC(=O)CN)CSSC[C@H](C(N)=O)NC(=O)[C@@H](Cc2ccc(O)cc2)NC1=O [all-D-retroinverse-OT] |  |  |  | > 24 h |  | inactive
